Read-outs that look alike come from different tables or passages of the source.
Experiments:
Aβ1-42 [1] = target: T1, Aβ1-42 (Homo sapiens, UniProt P05067); experiment: Degree of oxygenation of pre-aggregated Aβ1-42 (MALDI-TOF MS), Test Example 10; type: biochemical; conditions: pre-aggregated Aβ1-42 20 μM, catalyst 2 μM, 37° C., 30 minutes; for Degree of oxygenation (%) of Aβ42 (λ = 660 nm): phosphate buffer pH 7.4, 660 nm; for Degree of oxygenation (%) of Aβ42 (λ = 780 nm): phosphate buffer pH 7.4, 780 nm (14 mW)
T1 construct: phosphate buffer (pH 7.4)/cell culture solution (containing 0.1% horse serum) (1:3) containing Aβ1-42 (10 μM)
Procedure: (§1) Aβ1-42 isopeptide (concentration: 250 μM in 0.1% aqueous solution of trifluoroacetic acid), angiotensin IV (200 μM aqueous solution), Met-enkephalin (200 μM aqueous solution), and somatostatin (200 μM aqueous solution) were added to a phosphate buffer or phosphate buffer saline (pH 7.4) (with 0.1 M aqueous solution of sodium hydroxide, as necessary) so that a final peptide concentration of 20 μM or 40 μM (pH 7.4) was reached. Before being subjected to oxygenation reaction, the Aβ1-42 solution was incubated at 37° C. for 1 to 3 hours. The phosphate buffer containing 40 μM of Aβ was diluted with a Dulbecco's modified Eagle's medium (DMEM, Life Technologies) containing 0.1% horse serum and buffered with 25 mM of 4-(2-hydroxyethyl)-1-piperazineethanesulfonic acid (HEPES).
(§2) Solutions of the compounds with a final concentration of 2 μM were used for evaluation of oxygenation of Aβ1-42. Solutions of the compounds with a final concentration of 5 μM were used for evaluation of peptide selectivity. Each mixture was subjected to light irradiation with an LED (wavelength: 500, 660, or 780 nm) at a distance of approximately 5 to 10 cm at room temperature. A control group without light irradiation was additionally prepared. Reaction was analyzed through monitor analysis with a MALDI-TOF MS. Degree of oxygenation was determined as a ratio: degree of oxygenation (%)=(total of MS intensities for n[O] adducts)/(MS intensity for native+total of MS intensities for n[O] adducts)×100. Aliquots of each reaction solution were desalted with a ZipTip U-C18 (Merck Millipore), as necessary, before mass spectrometry.
a: A phosphate buffer (pH 7.4) solution containing pre-aggregated Aβ1-42 (20 μM, incubated at 37° C. for 3 hours) and a catalyst (2 μM) was subjected to light irradiation (wavelength: 660 nm) at 37° C. for 30 minutes. Thereafter, the reaction mixture was analyzed by using a MALDI-TOF MS.
a: A phosphate buffer (pH 7.4) containing pre-aggregated Aβ1-42 (20 μM, obtained through incubation at 37° C. for 3 hours) and a catalyst (2 μM) were subjected to light irradiation at 780 nm (14 mW) at 37° C. for 30 minutes. The reaction mixture was analyzed by using a MALDI-TOF MS.

[2] = Maximum wavelength λmax of photocatalysts; type: physicochemical
Aβ1-42 [3] = target: T1, Aβ1-42; experiment: Oxygenation under mouse skin, Test Example 7; type: in vivo; conditions: microtube with Aβ1-42 20 μM aggregated 3 hours, implanted in back skin, LED 780 nm, 30 minutes
Procedure: A microtube containing a phosphate buffer containing Aβ1-42 (20 μM, aggregated in advance for 3 hours) and the compound E or a compound 3 [9-(6-bromo-3-methyl-1,3-benzotriazol-3-ium-2-yl)-julolidine] was implanted in the back skin of a wild mouse, and light irradiation with an LED lamp was performed from the outside of the mouse body at a wavelength of 780 nm for 30 minutes (FIG. 10). As a control experiment, another microtube containing the same components (Aβ1-42 (20 μM, aggregated in advance for 3 hours) and the compound E or the compound 3) was directly subjected to light irradiation outside of the mouse body. The reaction mixture was analyzed by using a MALDI-TOF MS, and then subjected to ZipTip treatment for analysis. The percentage of oxygenation ratio was calculated from the percentage of oxygenation ratio under the skin and the oxygenation ratio outside of the skin “[oxygenation ratio under mouse skin/oxygenation ratio outside of mouse skin]×100”.

Aβ1-42 [4] = target: T1, Aβ1-42; experiment: In vitro oxygenation experiment using Aβ1-42 as a substrate (MALDI-TOF MS), Test Example 1; type: biochemical; conditions: test compound 1 μM, Aβ1-42 10 μM, 37° C.
Procedure: An in vitro oxygenation experiment using Aβ1-42 as a substrate was conducted to confirm that each of the inventive compounds actually have Aβ oxygenation activity. A test compound (1 μM in each case) was added to phosphate buffer (pH 7.4)/cell culture solution (containing 0.1% horse serum) (1:3) containing Aβ1-42 (10 μM), and incubated under LED irradiation (wavelength: 660 nm, 730 nm) at 37° C., and then the reaction was tracked by using a mass spectrometer (MALDI-TOF MS). The native Aβ1-42 and the Na^+ adduct were mainly observed before light irradiation. After light irradiation, an ion peak indicating the presence of the oxygenated form was observed over time (FIG. 1, FIG. 2).

[5] = Stability of catalyst in neutral phosphate buffer without or under light irradiation (HPLC), Test Example 5; type: physicochemical; conditions: under light irradiation (660 nm)
Procedure: A neutral phosphate buffer containing a catalyst was incubated without light irradiation or under light irradiation (660 nm), and thereafter ethanol containing benzyl alcohol (as an internal standard) was added thereto, and analysis was performed by using HPLC.

PC 12 cells [6] = type: cell-based
Procedure: Rat pheochromocytoma PC 12 cells were suspended with DMEM containing 5% horse serum and 10% fetal bovine serum, seeded in a poly-D-lysine-coated 96-well plate at a concentration of 10,000 cells per well, and incubated in a 5% carbon dioxide atmosphere at 37° C. for 3 days. After the solvent was removed, the cells were washed with 150 μL of serum-free DMEM, and DMEM (75 μL) containing 0.1% horse serum was added thereto. Thereafter, the 96-well plate was incubated in a 5% carbon dioxide atmosphere at 37° C. for 1 day for use in oxygenation reaction. In oxygenation reaction, the compound E (100 μM dimethyl sulfoxide solution) was added to a phosphate buffer saline containing Aβ (aggregated in advance for 3 hours, 40 μM) and 25 μL of the above cell solution (final concentration of Aβ: 10 μM, final concentration of compound E: 1 μM). The mixture was irradiated with an LED (wavelength: 780 nm) at a distance of approximately 5 cm at 37° C. for 5 minutes. The cells were incubated in a 5% carbon dioxide atmosphere at 37° C. for 48 hours. The cell viability was measured by using the Cell Count Reagent SF (NACALAI TESQUE, INC., Kyoto, Japan) with WST-8 (2-(2-methoxy-4-nitrophenyl)-3-(4-nitrophenyl)-5-(2,4-disulfophenyl)-2H-tetrazolium).
b: LC50 (dark) indicates the toxicity of a compound itself, and LC50 (light) indicates the phototoxicity of a compound. The PC 12 cells were placed in dark or subjected to photocatalytic treatment under light irradiation (wavelength: 660 nm), and incubated at 37° C. for 5 minutes, and then in a 5% carbon dioxide atmosphere at 37° C. for 48 hours, for which the cell viability was analyzed (n=5, mean±SEM).
b: The PC 12 cells were treated together with a photocatalyst (1 μM) at 37° C. for 5 minutes in dark or under light irradiation (wavelength: 780 nm), and thereafter the cell viability was analyzed (n=3, mean±SEM).

PC 12 cells [7] = experiment: Cytotoxicity under light irradiation, WST-8 cell viability, Test Example 2; type: cell-based, rat; conditions: LED 660 nm, 10 mW, 5 minutes, then 48 hours
Procedure: A culture medium for rat adrenal medulla-derived pheochromocytoma PC 12 cells (purchased from RIKEN, Japan) seeded on a poly-D-lysine-coated 96-well plate was replaced with 75 μL of a Dulbecco's modified Eagle's medium containing 0.1% horse serum, and the culture was incubated in a 5% CO2 atmosphere at 37° C. for 1 day, and 25 μL of a phosphate buffer saline (pH 7.4) containing a inventive compound was then added thereto. Thereafter, the mixed solution was incubated under LED irradiation (wavelength: 660 nm, 10 mW) (without light irradiation for dark) at 37° C. for 5 minutes. Further, the cell culture plate containing the reaction solution was incubated in a 5% CO2 atmosphere at 37° C. for 48 hours. Finally, the Cell Count Reagent SF (10 μL: purchased from NACALAI TESQUE, INC.) containing WST-8 was added, and the culture was incubated in a 5% CO2 atmosphere at 37° C. for 3 hours, and thereafter the cell viability was determined from the absorbance at 450 nm (reference wavelength: 655 nm).

Arctic Aβ1-38 = target: T2, Arctic Aβ1-38 (Homo sapiens, UniProt P05067, E693G); type: biochemical; conditions: mouse brain lysate, riboflavin, light irradiation
T2 construct: The peak intensity decreased by 36%/53%/74% for Arctic Aβ1-38; from tissue; host or cells: cerebral cortex and hippocampus of App knock-in mouse
Procedure: The brain excised from an eight-month-old App knock-in (App^NL-C-F/NL-C-F) mouse (Alzheimer's model mouse) was separated into the cerebral cortex, the hippocampus, and the residual brain tissues. The cerebral cortex and the hippocampus were homogenized together in a phosphate buffer saline, and the suspension was stored at −80° C. […] At an arbitrary point of time, an arbitrary aliquot of the reaction mixture was diluted with formic acid to a final concentration of 70%, concentrated, and redissolved in a 6 M aqueous solution of urea.

Aβ peptide = target: T3, Aβ peptide (Homo sapiens, UniProt P05067); experiment: Aβ selectivity of oxygenation, Test Example 9; type: biochemical; conditions: peptide 20 μM, riboflavin 5 μM, 500 nm, 37° C., 30 minutes
T3 construct: Aβ1-42 isopeptide (concentration: 250 μM in 0.1% aqueous solution of trifluoroacetic acid)
Procedure: as §1
as §2, with “Each mixture was subjected to light irradiation with an LED (wavelength: 500, 660, or 780 nm) at a distance of approximately 5 to 10 cm at room temperature.” left out

Met-enkephalin (ME) = target: T4, Met-enkephalin (ME) (Homo sapiens, UniProt P01210); experiment: Aβ selectivity of oxygenation, Test Example 9; type: biochemical; conditions: peptide 20 μM, riboflavin 5 μM, 500 nm, 37° C., 30 minutes
T4 construct: angiotensin-IV (AT4), Met-enkephalin (ME), or somatostatin (Sst) (20 μM in each case)
Procedure: as §1
as §2, with “Each mixture was subjected to light irradiation with an LED (wavelength: 500, 660, or 780 nm) at a distance of approximately 5 to 10 cm at room temperature.” left out

angiotensin-IV (AT4) = target: T5, angiotensin-IV (AT4) (Homo sapiens, UniProt P01019); experiment: Aβ selectivity of oxygenation, Test Example 9; type: biochemical; conditions: peptide 20 μM, riboflavin 5 μM, 500 nm, 37° C., 30 minutes
T5 construct: angiotensin-IV (AT4), Met-enkephalin (ME), or somatostatin (Sst) (20 μM in each case)
Procedure: as §1
as §2, with “Each mixture was subjected to light irradiation with an LED (wavelength: 500, 660, or 780 nm) at a distance of approximately 5 to 10 cm at room temperature.” left out

somatostatin (Sst) = target: T6, somatostatin (Sst) (Homo sapiens, UniProt P61278); experiment: Aβ selectivity of oxygenation, Test Example 9; type: biochemical; conditions: peptide 20 μM, riboflavin 5 μM, 500 nm, 37° C., 30 minutes
T6 construct: angiotensin-IV (AT4), Met-enkephalin (ME), or somatostatin (Sst) (20 μM in each case)
Procedure: as §1
as §2, with “Each mixture was subjected to light irradiation with an LED (wavelength: 500, 660, or 780 nm) at a distance of approximately 5 to 10 cm at room temperature.” left out

Structure (SMILES)	Degree of oxygenation (%) of Aβ42 (λ = 660 nm) (Aβ1-42 [1])	Maximum wavelength λmax (nm) ([2]; Table 1)	stability of catalyst (ranking) [5]	Degree of oxygenation (%) of Aβ42 (λ = 780 nm) (Aβ1-42 [1])	Maximum wavelength λmax (nm) ([2]; Table 2)	toxicity under light irradiation (ranking) (PC 12 cells [7])	also measured
CN(C)c1ccc(/C=C/C2=CC(=C/C=C3C=CC(=[N+](C)C)C=C3)/O[B-](F)(F)O2)cc1 [CRANAD-2, (T-4)-[(1E,6E)-1,7-bis[4-(dimethylamino)phenyl]-1,6-heptadiene-3,5-dionato-κO^3,κO^5]difluoroboron, reference compound]	trace	579 nm					
C[n+]1c2ccc(Br)cc2nn1-c1cc2c3c(c1)CCCN3CCC2 [Compound 3, 9-(6-bromo-3-methyl-1,3-benzotriazol-3-ium-2-yl)-julolidine, reference compound]	trace	456 nm					percentage of oxygenation ratios [oxygenation ratio under mouse skin/oxygenation ratio outside of mouse skin]×100 (Aβ1-42 [3]): 12%
O=C(O)CCCCCN1CCCc2cc(/C=C/C3=[O+][B-](F)(C(F)(F)F)OC(/C=C/c4cc5c6c(c4)CCCN6CCC5)=C3Br)ccc21 (centres unmarked) [Compound I]			stability was higher	52%	645 nm		oxygenation of Aβ1-42 under light irradiation (Aβ1-42 [4]; LED irradiation at both 660 nm and 730 nm): oxygenation of the Aβ proceeded; CC50 (PC 12 cells [6]; PC 12 cells in dark, 37° C., 5 minutes, n=3, mean±SEM, Table 2, read-out: LC50 (dark)): > 10000 nM; CC50 (PC 12 cells [6]; PC 12 cells, light irradiation 780 nm, 37° C., 5 minutes, n=3, mean±SEM, Table 2, read-out: LC50 (light)): 1670 nM
CN(C)c1ccc(/C=C/C2=C(Br)C(/C=C/c3ccc4c(c3)CCCN4CCCCCC(=O)O)=[O+][B-](F)(C(F)(F)C(F)(F)F)O2)cc1 (centres unmarked) [Compound J]	79%	622 nm	higher in the order of BFCF3 (compound K)<BFCF2CF3 (compound J)	41%	620 nm	higher in the order of the compound J, the compound K, and the compound L	
CN(C)c1ccc(/C=C/C2=C(Br)C(/C=C/c3ccc4c(c3)CCCN4CCCCCC(=O)O)=[O+][B-](F)(F)O2)cc1 [Compound L]	73%	623 nm	stability was the lowest			higher in the order of the compound J, the compound K, and the compound L	CC50 (PC 12 cells [6]): 24 nM
O=C(O)CCCCCN1CCCc2cc(/C=C/C3=[O+][B-](F)(C(F)(F)C(F)(F)C(F)(F)F)OC(/C=C/c4cc5c6c(c4)CCCN6CCC5)=C3Br)ccc21 (centres unmarked) [Compound S]				37%	633 nm		CC50 (PC 12 cells [6]): > 10000 nM
CN(C)c1ccc(/C=C/C2=C(I)C(/C=C/c3ccc4c(c3)CCCN4CCCCCC(=O)O)=[O+][B-](F)(C(F)(F)F)O2)cc1 (centres unmarked) [M]						iodine provides more reduced toxicity than in the case of bromine	oxygenation of Aβ1-42 under light irradiation (Aβ1-42 [4]; LED irradiation at 730 nm): oxygenation of the Aβ proceeded
Cc1cc2nc3c(=O)[nH]c(=O)nc-3n(C[C@H](O)[C@H](O)[C@H](O)CO)c2cc1C [riboflavin, reference compound]							consumption of Aβ1-38 (Arctic Aβ1-38): consumed to a significant degree; yield of oxygenated Aβ (Aβ peptide): 43%; yield of oxygenated Met-enkephalin (Met-enkephalin (ME)): 50%; yield of oxygenated angiotensin-IV (angiotensin-IV (AT4)): 35%; yield of oxygenated somatostatin (somatostatin (Sst)): 60%

Source: patent US10669287B2, “Curcumin-boron complex and pharmaceutical containing same” (JAPAN SCIENCE AND TECHNOLOGY AGENCY, priority 2016, dated 2020)
